{"source": "ChEMBL document CHEMBL1128017", "about": "“Antineoplastic agents 323. Isolation and structure of phakellistatin 6 from a Chuuk archipelago marine sponge” (1994)", "assay_type_in_all_cases": "functional", "key": {"SK-MEL-5": {"test_system": "SK-MEL-5", "assay": "Compound was tested for inhibition of SK-MEL-5 human melanoma cancer cell line"}, "KM-20L2": {"test_system": "KM-20L2", "assay": "Compound was tested for inhibition of KM20L2 human colon cancer cell line"}, "OVCAR-3": {"test_system": "OVCAR-3", "assay": "Compound was tested for inhibition of OVCAR-3 human ovarian cancer cell line"}, "NCI-H460": {"test_system": "NCI-H460", "assay": "Compound was tested for inhibition of NCI-H460 human lung cancer cell line"}, "P388": {"test_system": "P388", "assay": "Compound was tested for inhibition of murine P388 lymphocytic leukemia cancer cell line", "conditions": "Mus musculus, read-out: ED50 (the source's name)"}, "A498": {"test_system": "A498", "assay": "Compound was tested for inhibition of A498 human renal cancer cell line"}, "SF-295": {"test_system": "SF-295", "assay": "Compound was tested for inhibition of SF-295 human CNS cancer cell line"}}, "note": "Where a SMILES comes first, the peptide text is derived from it."}
{"smiles": "CC[C@H](C)[C@@H]1NC(=O)[C@@H]2CCCN2C(=O)[C@H](CC(C)C)NC(=O)[C@H](Cc2c[nH]c3ccccc23)NC(=O)[C@@H]2CCCN2C(=O)[C@H](Cc2ccccc2)NC(=O)[C@@H]2CCCN2C1=O", "note": "(cyclo(FPWLPIP))", "values": [{"measurement": "GI50", "setting": "SK-MEL-5", "value": 0.032, "unit": "µg/mL"}, {"measurement": "GI50", "setting": "KM-20L2", "value": 0.021, "unit": "µg/mL"}, {"measurement": "GI50", "setting": "OVCAR-3", "value": 0.025, "unit": "µg/mL"}, {"measurement": "GI50", "setting": "NCI-H460", "value": 0.019, "unit": "µg/mL"}, {"measurement": "EC50", "setting": "P388", "value": 0.185, "unit": "µg/mL"}, {"measurement": "GI50", "setting": "A498", "value": 0.078, "unit": "µg/mL"}, {"measurement": "GI50", "setting": "SF-295", "value": 0.041, "unit": "µg/mL"}]}
